Source: patent US4177291A, “Compounds having antidepressive activity” (priority 1976, dated 1979)
In brackets after ≈: the same amount, converted by molar mass. Read-outs that look alike come from different tables or passages of the source.

Tests used:
[1] = system: uptake of 14C-5-HT; assay: Inhibition of uptake of 14C-5-HT in vitro (mouse midbrain slices); assay type: cell-based, mice; settings: 5 min, read-out: Inhibition (50%) of uptake in vitro 5-HT
Procedure: (§1) The method is described by Ross, Renyi and Ogren in European Journal of Pharmacology 17 (1972), 107-112. Tricyclic antidepressant drugs of type imipramine added in vitro or given in vivo to mice decrease the uptake of ^14 C-5-HT and ^3 H-NA in vitro. In the in vitro experiments different concentrations of the test compound were added to the incubation medium. In the in vivo experiments different doses of the test drug were administered intraperitoneally half an hour before the animals were killed. The incubation performance was the same in the two types of experiments, i.e. the midbrain was taken out and sliced and incubated in a mixture consisting of, per 100 mg of brain slices, 0.2 n-mole of ^14 C-5-HT, 0.2 n-mole of ^3 H-NA and 11μ mole of glucose in 2 ml of Krebs-Henseleit buffer, pH 7.4. The incubation time was 5 minutes. The radioactive amines taken up in the slices were dissolved in Soluene-350® (Packard) and the amounts were determined with the double labelling technique by liquid scintillation. The concentration or dose producing 50 percent decrease of the active uptake (ED50) was determined graphically from dose response curves. Active uptake is defined as that part of the radioactive uptake which is inhibited by a high concentration of cocaine. All doses were given at least to four animals.

[2] = system: uptake of 3H-NA; assay: Inhibition of uptake of 3H-noradrenaline in vitro (mouse midbrain slices); assay type: cell-based, mice; settings: 5 min, compound added to incubation medium, l-noradrenaline 1×10^-7 M, 5 min incubation, ED50 from dose response curves, read-out: Inhibition (50%) of uptake in vitro NA
Procedure: as §1

[3] = system: uptake of 14C-5-HT; assay: Inhibition of uptake of 14C-5-HT in vivo (drug given i.p., uptake measured in midbrain slices); settings: Mus musculus, ip, 0.5 h, mice dosed i.p. half an hour before killing, 5-HT 1×10^-7 M, read-out: Inhibition (50%) of uptake in vivo 5-HT
Procedure: as §1, with “Tricyclic antidepressant drugs of type imipramine added in vitro or given in vivo to mice decrease the uptake of ^14 C-5-HT and ^3 H-NA in vitro.” left out

[4] = system: uptake of 3H-NA; assay: Inhibition of uptake of 3H-noradrenaline in vivo (drug given i.p., uptake measured in midbrain slices); settings: Mus musculus, ip, 0.5 h, mice dosed i.p. half an hour before killing, l-noradrenaline 1×10^-7 M, read-out: Inhibition (50%) of uptake in vivo NA
Procedure: as §1, with “Tricyclic antidepressant drugs of type imipramine added in vitro or given in vivo to mice decrease the uptake of ^14 C-5-HT and ^3 H-NA in vitro.” left out

[5] = system: 5-HTP behavioural syndrome; assay: 5-HTP response potentiation test; assay type: in vivo, mice; settings: Mus musculus, read-out: Potentiation of 5-HTP effective dose
Procedure: Inhibition of the uptake of 5-HT potentiates the effects of administered 5-hydroxytryptophan (5-HTP) probably by increasing the amount of 5-HT at the receptor. Three mice are given the test drugs one hour (or 4, 24 hours) before dl-5-HTP 90 mg/kg i.v. 5-HTP alone gives only a weak behavioural syndrome but in pretreated mice there is seen a characteristic behavioural syndrome, which comes within five minutes: tremor, lordosis, abduction of the hindlegs, head-twiches. The strength of the syndrome is scored from 0 to +3. Each group consists of 3 animals and at least 4 groups were tested at 25 mg/kg i.p. Control groups receiving imipramine (Tofranil®) are used as reference, since imipramine constantly potentiated dl-5-HTP. The least dose of the test compound producing maximal score (+3) in all animals is estimated from a logarithmic dose-response curve, and is denoted "effective dose" in the following Table.

Compound	IC50 ([1]; compound added to incubation medium, mouse midbrain slices, 5-HT 1×10^-7 M, 5 min incubation, ED50 from dose response curves)	IC50 [2]	ED50 [3]	ED50 [4]	minimal effective dose ([5]; mice, least dose producing maximal score (+3) in all animals, test drug given before dl-5-HTP 90 mg/kg i.v.)	IC50 ([1]; Mus musculus)	minimal effective dose [5]
CC(N)C(=O)CC(C)(C)Cc1ccc(Cl)cc1.Cl (stereo not shown) [GEA 995, 2-amino-6-(4-chlorophenyl)-5,5-dimethyl-3-hexanone hydrochloride]	0.6 µg/mL	> 10 µg/mL	20 mg/kg	> 40 mg/kg	4 mg/kg	–	–
CN(C)CCCN1c2ccccc2CCc2ccccc21 [Imipramine, imipramine]	–	0.06 µg/mL (≈ 0.214 µM)	24 mg/kg	6 mg/kg	–	0.1 µg/mL (≈ 0.357 µM)	15 mg/kg
